Laboratory results reported in US20100016163A1, “Adjuvant and dispersant formulations for pesticidal applications” (priority 2007, published 2010).
Where two headings read alike, the source gives them in different places.

Legend:
all 8 species = assay: Field trial of phytotoxicity enhancement, isopropyl ammonium glyphosate formulations (Example 7), sum over species; type: in vivo; conditions: foliar, isopropyl ammonium glyphosate 360 g a.e./l, 15% surfactant
Experimental: (§1) The C14 DMAPA MeCl Esterquat formulation was prepared as follows: About 32.3 grams of a solution of the isopropyl ammonium salt of glyphosate, which was about 46.5% by weight acid equivalent (a.e.) of glyphosate and about 6.2 grams of deionized water, were added in a 4-ounce jar. Then, about 7.5 grams of the C14 DMAPA MeCl Esterquat and about 4 grams of propylene glycol were slowly added to the jar with stirring.
(§2) Samples of the formulations as made above were applied to subject plants at two application rates, 90% and 45% of the label rate of RoundUp® Ultra, available from Monsanto Company, St. Louis, Mo. RoundUp® Ultra contains about 360 g a.e./l of isopropyl ammonium glyphosate salt and about 15% by weight of a blend of surfactants. The precise identity of the surfactants has not been disclosed.
Eight plant species were selected for the study. They include (1) Bamyardgrass, (2) Redroot pigweed, (3) Morning glory ivyleaf, (4) Sicklepod, (5) Panicum, (6) Crabgrass, (7) Velvetleaf, and (8) Sunflower. The tests were performed in a randomized complete block design with 5 replicates of each species of plant. Plants were grown in square plastic pots, 3.75 inches×3.75 inches and 3.125 inches deep. Prior to treatment, 5 replicate pots were indiscriminately selected for each treatment and plant species. […]

Barnyardgrass = assay: Field trial Example 7, % kill; type: in vivo; conditions: isopropyl ammonium glyphosate 360 g a.e./l
Experimental: as §1, §2
(§3) Eight plant species were selected for the study. They include (1) Bamyardgrass, (2) Redroot pigweed, (3) Morning glory ivyleaf, (4) Sicklepod, (5) Panicum, (6) Crabgrass, (7) Velvetleaf, and (8) Sunflower. The tests were performed in a randomized complete block design with 5 replicates of each species of plant. Plants were grown in square plastic pots, 3.75 inches×3.75 inches and 3.125 inches deep. Prior to treatment, 5 replicate pots were indiscriminately selected for each treatment and plant species. Treatments were applied as foliar applications with a hand pump sprayer equipped with 1 nozzle calibrated to deliver 15 gallons per acre. All spraying tests included a set of 5 untreated control plants from each species.

Crabgrass = assay: Field trial Example 7, % kill; type: in vivo; conditions: isopropyl ammonium glyphosate 360 g a.e./l
Experimental: as §1, §2, §3

Morning glory, ivyleaf = assay: Field trial Example 7, % kill; type: in vivo; conditions: isopropyl ammonium glyphosate 360 g a.e./l
Experimental: as §1, §2, §3

Panicum, fall = assay: Field trial Example 7, % kill; type: in vivo; conditions: isopropyl ammonium glyphosate 360 g a.e./l
Experimental: as §1, §2, §3

Redroot pigweed = assay: Field trial Example 7, % kill; type: in vivo; conditions: isopropyl ammonium glyphosate 360 g a.e./l
Experimental: as §1, §2, §3

Sicklepod = assay: Field trial Example 7, % kill; type: in vivo; conditions: isopropyl ammonium glyphosate 360 g a.e./l
Experimental: as §1, §2, §3

Sunflower = assay: Field trial Example 7, % kill; type: in vivo; conditions: isopropyl ammonium glyphosate 360 g a.e./l
Experimental: as §1, §2, §3

Velvetleaf = assay: Field trial Example 7, % kill; type: in vivo; conditions: isopropyl ammonium glyphosate 360 g a.e./l
Experimental: as §1, §2, §3

[1] = Surface tension, Gibbs isotherm (Kibron μTrough S); type: physicochemical; conditions: FIG. 3
Excerpt: The surface tension of a solution can give important information about its behavior as a surfactant. Measuring the surface tension of a series of aqueous solutions of a molecule and plotting the measured surface tension results versus the logarithm of the concentrations of the series of aqueous solutions yields a plot known as a Gibbs isotherm. From the Gibbs isotherm, one can obtain the critical micelle concentration (CMC) of a surfactant as well as the surface tension at the CMC, two parameters that can indicate the behavior of a surfactant.
For each molecule studied, 14 solutions were prepared so that each solution was half the concentration of the previous solution. Another solution that consisted of only deionized water was used as a reference. Therefore, a total of 15 solutions were studied for each molecule.

[2] = acid form, 25° C., cited from earlier work

Question: For `CCCCCCCCCCCCCC(=O)NCCC[N+](C)(C)C.[Cl-]` [C14 DMAPA MeCl Esterquat], which “Sum of % kill of all 8 species at low (45%) application rate” value (all 8 species; 45% of RoundUp Ultra label rate) is on record?
Answer: 660%

Question: And the “Sum of % kill of all 8 species at high (90%) application rate” value (all 8 species; 90% of RoundUp Ultra label rate)?
Answer: 708%

Question: What about the “% kill” value (Barnyardgrass; high (90%) application rate) of the same compound?
Answer: 100%

Question: And the “% kill” value (Barnyardgrass; low (45%) application rate)?
Answer: 99%

Question: What about the “% kill” value (Crabgrass; high (90%) application rate) of the same compound?
Answer: 100%

Question: And the “% kill” value (Crabgrass; low (45%) application rate)?
Answer: 100%

Question: What about the “% kill” value (Morning glory, ivyleaf; high (90%) application rate) of the same compound?
Answer: 84%

Question: What about the “% kill” value (Morning glory, ivyleaf; low (45%) application rate) of the same compound?
Answer: 53%

Question: What about the “% kill” value (Panicum, fall; high (90%) application rate) of the same compound?
Answer: 95%

Question: And the “% kill” value (Panicum, fall; low (45%) application rate)?
Answer: 90%

Question: What about the “% kill” value (Redroot pigweed; high (90%) application rate) of the same compound?
Answer: 100%

Question: And the “% kill” value (Redroot pigweed; low (45%) application rate)?
Answer: 100%

Question: And the “% kill” value (Sicklepod; high (90%) application rate)?
Answer: 33%

Question: And the “% kill” value (Sicklepod; low (45%) application rate)?
Answer: 22%

Question: What about the “% kill” value (Sunflower; high (90%) application rate) of the same compound?
Answer: 100%

Question: And the “% kill” value (Sunflower; low (45%) application rate)?
Answer: 100%

Question: And the “% kill” value (Velvetleaf; high (90%) application rate)?
Answer: 96%

Question: And the “% kill” value (Velvetleaf; low (45%) application rate)?
Answer: 96%

Question: What about the “surface activity, compared with C14 DMAPA MeCl Esterquat” value [1] of the same compound?
Answer: higher surface activity

Question: What does the source list for `O=C(O)CNCP(=O)(O)O` [Glyphosate, N-(phosphonomethyl)glycine]?
Answer: solubility in water [2]: 1.16 % by weight; solubility in water ([2]; listed as glyphosate): about 1.16 % by weight
